{"source": "patent US8575111B2", "about": "“Pharmaceutical compositions and methods for treating erectile dysfunction” (Universidade Federal de Minas Garais-UFMG, priority 2007, dated 2013)", "key": {"[1]": {"test_system": "erectile dysfunction", "conditions": "men with erectile dysfunction; cited from earlier work"}, "[2]": {"assay": "Absorption and biological stability after gavage in Wistar rats", "type": "in vivo, rat", "conditions": "Ang-(1-7) peptide alone, gavage 100 μg/50 μl", "procedure": "Assays for determining absorption and biological stability of the Ang-(1-7)/HPβ-CD inclusion complex were made in aqueous solution. Twelve normal Wistar rats properly prepared were used to carry out the experiments. The animals were divided in 3 experimental groups and subjected to a gavage procedure with a salt solution (0.9%/50 μl) of Ang-(1-7) (100 μg/50 μl) and Ang-(1-7)/HPβ-CD (100 μg/50 μl). Four blood samples (1 ml, each) from the animals were collected. The first collection occurred before gavage procedure, and the remaining three 2, 6 and 24 hours post gavage."}, "[3]": {"test_system": "erectile function of SHR", "assay": "Erectile function (CCP/MAP) of SHR chronically treated orally", "type": "in vivo, rat", "conditions": "chronic oral treatment, drug alone, 1.5 V", "procedure": "Eight weeks post-treatment with Ang-(1-7)/HPβ-CD Inclusion Complex and/or Atenolol, the erectile function of the animals (SHR, spontaneously hypertensive rats) was evaluated. Particularly, erectile function of animals chronically treated with Atenolol was evaluated after concurrent administration with Ang-(1-7)/HPβ-CD Inclusion Complex. The drugs were orally administered via solutions containing them, alone or in combination. As a control, a group of animals was treated with HPβ-CD.\nThe procedure for inducing erection and intracavernosal pressure measurement was made as previously described (see, T. M. Mills, R. W. Lewis, V. S. Stopper, Biol Reprod 59, 1413 (December, 1998). Firstly, the animals (SHR) were anesthetized with intraperitoneal urethane (140 mg/kg) and placed on a thermal plate to maintain body temperature at 37° C. A polyethylene cannule was introduced into the animal trachea to keep respiratory patency. Following, the rat left femoral artery was cannulated with a polyethylene tube (PE-50) with heparinized saline (200 U/ml) for continuous monitoring of mean arterial pressure (MAP). The catheter was connected to a pressure transducer. The penial erection was obtained by applying electric stimulation on the major pelvic ganglion (MPG). […]"}, "[4]": {"test_system": "rat ganglionic-stimulated erectile response", "assay": "Ganglionic-stimulated changes in CCP/MAP after intracavernosal drug administration in anesthetized rats", "type": "in vivo", "procedure": "Normotensive and DOCA-salt hypertensive rats, Mas−/− and WT mice were anesthetized with intraperitoneal urethane (140 mg/Kg). The rat left femoral artery and mice […] was cannulated for continuous monitoring of mean arterial pressure (MAP). The shaft of the penis was freed of skin and fascia, and the right corpus cavernosum was cannulated by insertion of a 30-gauge needle connected to a pressure transducer, permitting continuous monitoring of corpus cavernosum pressure (CCP) as described elsewhere (see, e.g., T. M. Mills, et al., Biol Reprod 59, 1413 (December, 1998)). The rat left corpus cavernosum was cannulated with 30-gauge needles attached to 10-μL syringes via short lengths of polyethylene (PE)-10 tubing and used for administration of vasoactive drugs. The abdominal cavity was opened, exposing the right major pelvic ganglion (MPG), and silver bipolar electrodes were positioned on it. […]\nIn order to evaluate the role of the Ang-(1-7) released endogenously, it was first determined the minimal stimuli in which the maximal value of the CCP/MAP was achieved. […]\nTo evaluate the effect of Ang-(1-7) on ganglionic-stimulated CCP/MAP rise in the presence of NOS inhibition, a sub-maximal stimulus was determined and applied to the MPG. […] Thereafter, Ang-(1-7) was administered and sub-maximal stimulus was applied while CCP/MAP was continuously recorded."}, "[5]": {"biological_target": "T1, AT1 (Homo sapiens, UniProt P30556)", "T1 sequence (P30556 1-359)": "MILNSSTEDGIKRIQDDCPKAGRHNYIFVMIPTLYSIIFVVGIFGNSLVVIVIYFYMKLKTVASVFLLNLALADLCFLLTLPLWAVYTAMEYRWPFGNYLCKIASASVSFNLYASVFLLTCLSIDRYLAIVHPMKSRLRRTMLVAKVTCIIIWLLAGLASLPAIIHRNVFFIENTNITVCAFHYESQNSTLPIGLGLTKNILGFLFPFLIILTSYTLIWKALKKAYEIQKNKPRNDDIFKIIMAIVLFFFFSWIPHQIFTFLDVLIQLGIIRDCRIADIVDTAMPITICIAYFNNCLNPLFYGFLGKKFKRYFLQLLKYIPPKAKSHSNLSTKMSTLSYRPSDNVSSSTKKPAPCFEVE", "conditions": "receptor AT1; cited from earlier work"}}}
{"compound": "CCCCC[C@H](O)/C=C/[C@H]1[C@H](O)CC(=O)[C@@H]1CCCCCCC(=O)O", "note": "[ALPROSTADIL®]", "values": [{"measurement": "patients in whom the treatment is effective", "setting": "[1]", "value": "over 80%"}]}
{"compound": "CC[C@H](C)[C@H](NC(=O)[C@H](Cc1ccc(O)cc1)NC(=O)[C@@H](NC(=O)[C@H](CCCNC(=N)N)NC(=O)[C@@H](N)CC(=O)O)C(C)C)C(=O)N[C@@H](Cc1c[nH]cn1)C(=O)N1CCC[C@H]1C(=O)O", "note": "[Ang-(1-7), Asp-Arg-Val-Tyr-Ile-His-Pro]", "values": [{"measurement": "increase of plasmatic peptide concentration relative to Ang-(1-7)/HPβ-CD", "setting": "[2]", "value": "about 8 fold lower"}]}
{"compound": "CC(C)NCC(O)COc1ccc(CC(N)=O)cc1", "note": "(stereo not drawn) [Atenolol, atenolol]", "values": [{"measurement": "effect on intracavernosal pressure rise induced by stimulation of the major pelvic ganglion", "setting": "[3]", "value": "reduced"}]}
{"compound": "COC(=O)[C@@H](N)CCCNC(=N)N[N+](=O)[O-]", "note": "[L-NAME, Nw-nitro-L-arginine methyl ester]", "values": [{"measurement": "CCP/MAP induced by submaximal stimulus", "setting": "[4]; L-NAME 200 μg/Kg intracavernosal, mean±s.e.m., n=6, control 0.57±0.06, P<0.05", "value": "0.38±0.05"}, {"measurement": "effect on baseline CCP or MAP", "setting": "[4]; administration into left cavernosal sinuses", "value": "did not alter"}]}
{"compound": "Des-Asp1-Ang I: angiotensin listed in Table 1, acting on AT1 (RVYIHPFHL; Angiotensin-1; UniProt P01019 26-34, looked up, fragment)", "values": [{"measurement": "Actions", "setting": "[5]", "value": "Inhibition of Ang II-induced cell"}]}
